From the NIST ThermoML archive (doi:10.1021/je100610v)

Assay: xn = mol fraction of the nth substance listed
Conditions: 101 kPa, Liquid; for speed of sound: Pulse-echo method

ClCCCCCCCl [1,6-dichlorohexane] + CCCCCCC
Conditions	mass density [kg/m3]	speed of sound [m/s]
292.49 K, x1 = 0.3004	–	1199.1
292.56 K, x1 = 0.6998	–	1276.9
292.79 K, x1 = 0.4999	–	1235
292.8 K, x1 = 0.8001	–	1297
292.8 K, x1 = 0.8957	–	1316.3
292.81 K, x1 = 0.1999	–	1181.6
292.81 K, x1 = 0.6004	–	1255
292.91 K, x1 = 0.4	–	1215.3
292.92 K, x1 = 0.1014	–	1167.6
293.01 K, x1 = 1	–	1337.8
293.15 K, x1 = 0.0998	722.22	–
293.15 K, x1 = 0.1999	760.97	–
293.15 K, x1 = 0.2998	799.74	–
293.15 K, x1 = 0.4001	838.66	–
293.15 K, x1 = 0.5001	877.38	–
293.15 K, x1 = 0.6002	916.12	–
293.15 K, x1 = 0.7	954.46	–
293.15 K, x1 = 0.8002	992.78	–
293.15 K, x1 = 0.9001	1030.7	–
293.15 K, x1 = 1	1068.33	–
298.15 K, x1 = 0.0998	717.96	–
298.15 K, x1 = 0.1999	756.72	–
298.15 K, x1 = 0.2998	795.42	–
298.15 K, x1 = 0.4001	834.33	–
298.15 K, x1 = 0.5001	873.04	–
298.15 K, x1 = 0.6002	911.75	–
298.15 K, x1 = 0.7	950.12	–
298.15 K, x1 = 0.8002	988.4	–
298.15 K, x1 = 0.9001	1026.11	–
298.15 K, x1 = 1	1063.61	–
298.16 K, x1 = 0.6998	–	1256.2
298.16 K, x1 = 0.8957	–	1297.1
298.17 K, x1 = 0.3004	–	1176.1
298.17 K, x1 = 0.4999	–	1214.5
298.18 K, x1 = 1	–	1319.7
298.2 K, x1 = 0.4	–	1195
298.2 K, x1 = 0.8001	–	1277.5
298.21 K, x1 = 0.1014	–	1145.5
298.21 K, x1 = 0.1999	–	1159.4
298.21 K, x1 = 0.6004	–	1235.2
303.14 K, x1 = 0.4999	–	1195.5
303.14 K, x1 = 0.6998	–	1237.9
303.14 K, x1 = 0.8957	–	1279.5
303.15 K, x1 = 0.0998	713.61	–
303.15 K, x1 = 0.1999	752.3	–
303.15 K, x1 = 0.2998	791	–
303.15 K, x1 = 0.3004	–	1156.1
303.15 K, x1 = 0.4001	830	–
303.15 K, x1 = 0.5001	868.59	–
303.15 K, x1 = 0.6002	907.23	–
303.15 K, x1 = 0.7	945.63	–
303.15 K, x1 = 0.8002	983.71	–
303.15 K, x1 = 0.9001	1021.49	–
303.15 K, x1 = 1	1058.87	1302.4
303.19 K, x1 = 0.4	–	1175.5
303.19 K, x1 = 0.8001	–	1259.6
303.2 K, x1 = 0.1014	–	1124.7
303.2 K, x1 = 0.1999	–	1138.9
303.2 K, x1 = 0.6004	–	1216.8
308.12 K, x1 = 0.6998	–	1219.8
308.12 K, x1 = 0.8957	–	1261.9
308.13 K, x1 = 0.3004	–	1136.2
308.13 K, x1 = 0.4999	–	1176.5
308.14 K, x1 = 1	–	1285
308.15 K, x1 = 0.0998	709.34	–
308.15 K, x1 = 0.1999	748.07	–
308.15 K, x1 = 0.2998	786.58	–
308.15 K, x1 = 0.4001	825.61	–
308.15 K, x1 = 0.5001	864.37	–
308.15 K, x1 = 0.6002	902.95	–
308.15 K, x1 = 0.7	941.1	–
308.15 K, x1 = 0.8002	979.09	–
308.15 K, x1 = 0.9001	1016.82	–
308.15 K, x1 = 1	1054.14	–
308.17 K, x1 = 0.4	–	1156.1
308.18 K, x1 = 0.1014	–	1104
308.18 K, x1 = 0.6004	–	1198.3
308.18 K, x1 = 0.8001	–	1241.7
308.19 K, x1 = 0.1999	–	1118.6
313.15 K, x1 = 0.0998	704.96	–
313.15 K, x1 = 0.1999	743.68	–
313.15 K, x1 = 0.2998	782.17	–
313.15 K, x1 = 0.4001	821.26	–
313.15 K, x1 = 0.5001	859.93	–
313.15 K, x1 = 0.6002	898.61	–
313.15 K, x1 = 0.7	936.7	–
313.15 K, x1 = 0.8002	974.58	–
313.15 K, x1 = 0.9001	1012.12	–
313.15 K, x1 = 1	1049.39	–
313.21 K, x1 = 0.3004	–	1116.2
313.21 K, x1 = 0.6998	–	1201.4
313.21 K, x1 = 0.8957	–	1244
313.22 K, x1 = 0.4999	–	1157.3
313.23 K, x1 = 1	–	1267.4
313.25 K, x1 = 0.1014	–	1082.9
313.26 K, x1 = 0.4	–	1136.5
313.26 K, x1 = 0.8001	–	1223.6
313.28 K, x1 = 0.1999	–	1098
313.28 K, x1 = 0.6004	–	1179.5
